Measured values reported in patent publication US9663454B2, “3-aryl propiolonitrile compounds for thiol labeling” (Universite de Strasbourg, priority 2013, dated 2017).

Experiments:
[1] = Stability of probes A and B in human plasma (fluorescence over time); format: in vitro ADME; conditions: same concentration of A and B, FIG. 1
Description: FIG. 1: Evolution of intensity of fluorescence over time obtained in human plasma for the same concentration of compounds A and B.
The stability of compounds A (according to the invention) and B (reference compound) below was studied in different biological conditions.

[2] = tested on: BNL CL.2 cells; test: Stability of probes A and B in cellulo (cytometry, microscopy); format: cell-based, mouse; conditions: 1 μM, 2, 6 and 24 hours, FIG. 2
Protocol: FIG. 2a-2c: a) Evolution of intensity of fluorescence over time obtained in cellulo for the same concentration of compounds A and B. • b) Intensity ratio compound B/compound A at different times in cellulo. • c) Microscope pictures of cells treated with compounds A and B, superimposition of TAMRA and Hoechst labeling. White spots around nucleus correspond to hydrolyzed probe. A—arylpropiolonitrile probe, B—maleimide probe.
Normal liver BNL CL.2 cells from mouse were grown in Dulbecco's MEM medium with 1 g/l glucose (Eurobio, Les Ulis, France) supplemented with 10% fetal bovine serum (Perbio, Brebieres, France), 2 mM L-Glutamine, 100 U/mL penicillin, 100 μg/mL streptomycin (Eurobio). Cells were maintained in a 5% CO2 humidified atmosphere at 37° C.
The required amounts of probes A and B were diluted up to 300 μl in MEM complete medium to give final concentration of 1 μM and then added onto the cells. A 5 μg/ml of Hoechst 118 solution was used as a nuclear marker.
The day before experiment, BNL CL.2 cells were seeded in 96-plates (Greiner Bio One, Frickenhausen, Germany) at 2.0×10^4 cells/well in Dulbecco's MEM complete medium. […] After washing with PBS (Eurobio), 5 min incubation with 40 μl trypsine, and addition of 160 μl of PBS EDTA 5 mM, cells were analyzed by flow cytometry on a PCA-96 Guava cytometer (Guava Technologies Merck Millipore, Billerica, Mass., USA) with a green laser.

[3] = Selectivity screening of electrophiles, whole panel of amino acid models; conditions: 1 hour, PBS (1×, pH 7.6), 1 mM reagents
Protocol: Screening for selectivity was done on benzylamides of non-protected amino acids. 100 mM stock solutions of benzylamides of amino acids (in form of TFA salts) and electrophiles (phenylpropiolonitrile and phenylmaleimide) were prepared in DMSO and stored at −20° C. A 100 mM stock solution of benzamide (used as an internal standard) was prepared in distilled water and stocked at −20° C. Analyses of reaction mixtures were conducted with Shimadzu LC with SunFire™ C18 5 μM 4.6×150 mm column (Waters). HPLC parameters were as follows: flow rate 1 mL/min, gradient from 5 to 95% of mobile phase B from 0 to 20 min, followed by 5 min at 95% of mobile phase and post time of 5 min. Mobile phase A was 0.05% TFA in water (mQ) (v/v), and mobile phase B was acetonitrile (HPLC grade). Data were analyzed using Shimadzu analysis software. Signals were normalized according to the area of the peak of the internal standard (benzamide). […]
10 μL of the stock solution of amino acid benzamide and 2.5 μL of the stock solution of benzamide were added to a vial containing 977.5 μL of PBS (1×, pH 7.6). […] Aliquots of the reaction mixture (50 μL) were analyzed by HPLC for 1 hour of hydrolysis (injections at 0, 30 and 60 min). […] Masses of corresponding adducts were detected by mass spectrometry (ESI-LCMS) in some cases (shown in bold, Table 4).

[4] = Hydrolytic stability in PBS, HPLC monitoring; format: physicochemical; conditions: PBS (1×, pH 7.6), 1 mM, 25° C.
Protocol: FIG. 3a-3b: HPLC monitoring of the hydrolysis of phenylmaleimide (2) in PBS (1×, pH 7.6) at 1 mM concentration at 25° C.; the peaks correspond, from the earliest to the latest, to
[drawing 5] conversion was monitored by disappearance of the starting material (a). Pseudo first order rate constant for the reaction was determined by plotting the ln([phenylmaleimide]) versus time and analyzing by linear regression. The constant corresponds to the absolute value of determined slope (b).
FIG. 4: HPLC monitoring of hydrolytic stability of N-(4-(cyanoethynyl)phenyl)acetamide (pNHAc-APN, 11) in PBS (1×, pH 7.6) at 1 mM concentration at 25° C. Conversion was monitored by disappearance of the starting material; the peaks correspond, from the earliest to the latest, to
To a vial containing 980 μL of PBS (1×, pH 7.6), were subsequently added 10 μL of a stock solution of benzamide and 10 μL of a stock solution of electrophile (phenylmaleimide 1 or
[drawing 112] 11) to give final concentration of 1 mM (both internal standard and electrophile). Aliquots of the reaction mixture (50 μL) were analyzed by HPLC for 5 hours of hydrolysis (injection every 30 min). Areas under the peaks of the starting materials and hydrolysis products were normalized according to the area of the peak of the internal standard.

[5] = Selectivity screening of electrophiles on amino acid benzylamides, HPLC; conditions: in 1 hour in PBS (1×, pH 7.6) in presence of the electrophile, 1 mM reagents
Protocol: Screening for selectivity was done on benzylamides of non-protected amino acids. 100 mM stock solutions of benzylamides of amino acids (in form of TFA salts) and electrophiles (phenylpropiolonitrile and phenylmaleimide) were prepared in DMSO and stored at −20° C. A 100 mM stock solution of benzamide (used as an internal standard) was prepared in distilled water and stocked at −20° C. Analyses of reaction mixtures were conducted with Shimadzu LC with SunFire™ C18 5 μM 4.6×150 mm column (Waters). HPLC parameters were as follows: flow rate 1 mL/min, gradient from 5 to 95% of mobile phase B from 0 to 20 min, followed by 5 min at 95% of mobile phase and post time of 5 min. Mobile phase A was 0.05% TFA in water (mQ) (v/v), and mobile phase B was acetonitrile (HPLC grade). Data were analyzed using Shimadzu analysis software. Signals were normalized according to the area of the peak of the internal standard (benzamide). Areas under the peaks of the amino acid benzylamides were used to calculate their conversion during reaction.
10 μL of the stock solution of amino acid benzamide and 2.5 μL of the stock solution of benzamide were added to a vial containing 977.5 μL of PBS (1×, pH 7.6). The solution was stirred and 10 μL of the stock solution of electrophile were added to give 1 mM final concentrations of reagents and 0.25 mM concentration of benzamide. Aliquots of the reaction mixture (50 μL) were analyzed by HPLC for 1 hour of hydrolysis (injections at 0, 30 and 60 min). Areas under the peaks of the starting materials and hydrolysis products were normalized according to the area of peak of the internal standard. In case of phenylpropiolonitrile, none of amino acid models gave more than 1.6% conversion (see table 3 below). […] Masses of corresponding adducts were detected by mass spectrometry (ESI-LCMS) in some cases (shown in bold, Table 4).

Row | Compound | stability in human plasma (in words) [1] | stability in cellulo (in words) [2] | highest conversion among the amino acid models other than cysteine [3] | kobs (pseudo first order rate constant of hydrolysis) [4] [s⁻¹] | hydrolysis (in words) ([4]; up to 5 hours of monitoring) | Conversion of AlaNHBn (7c) [5] [%] | Conversion of ArgNHBn (7k) [5] [%] | Conversion of AspNHBn (7l) [5] [%] | Conversion of CysNHBn (7a) [5] [%] | Conversion of GlnNHBn (7i) [5] [%] | Conversion of GlyNHBn (7b) [5] [%] | Conversion of HisNHBn (7h) [5] [%] | Conversion of MetNHBn (7f) [5] [%] | Conversion of SerNHBn (7e) [5] [%] | Conversion of TrpNHBn (7j) [5] [%] | Conversion of TyrNHBn (7g) [5] [%] | Conversion of ValNHBn (7d) [5] [%]
1 | COc1cc(/N=N/c2ccc([N+](=O)[O-])cc2)c(OC)cc1/N=N/c1ccc(N(C)CCCC(=O)NCCSC(=CC#N)c2ccc(NC(=O)CCCNC(=O)c3ccc(-c4c5ccc(=[N+](C)C)cc-5oc5cc(N(C)C)ccc45)c(C(=O)[O-])c3)cc2)cc1 [A] | far more stable than compound B in human plasma | far more stable than compound B in cellulo | – | – | – | – | – | – | – | – | – | – | – | – | – | – | –
2 | O=C1C=CC(=O)N1c1ccccc1 [phenylmaleimide, reference compound] | – | – | up to 8.5% | 7e-05 | Noticeable hydrolysis | 0.2 | 2.9 | 1.3 | 100 | 1.7 | 3.3 | 8.5 | 1.9 | 2.8 | 1.0 | 2.4 | 0.9
